Laboratory results reported in ChEMBL document CHEMBL1157697, “Novel ester and acid derivatives of the 1,5-diarylpyrrole scaffold as anti-inflammatory and analgesic agents. Synthesis and in vitro and in vivo biological evaluation” (J Med Chem, 2010).
Active and inactive are the calls of the source. The calls are words filed in the database; no cut-off is given here.

Columns and labels:
[1] = Metabolic stability in human liver microsomes at 0.1 uM; assay type: ADME, Microsome; conditions: read-out: Stability
[2] = biological target: T1, Prostaglandin G/H synthase 2 (Homo sapiens, UniProt P35354); test: Inhibition of COX2 in human whole blood assessed as inhibition of LPS-induced PGE2 production by RIA; assay type: tissue-based
T1 sequence (P35354 whole entry): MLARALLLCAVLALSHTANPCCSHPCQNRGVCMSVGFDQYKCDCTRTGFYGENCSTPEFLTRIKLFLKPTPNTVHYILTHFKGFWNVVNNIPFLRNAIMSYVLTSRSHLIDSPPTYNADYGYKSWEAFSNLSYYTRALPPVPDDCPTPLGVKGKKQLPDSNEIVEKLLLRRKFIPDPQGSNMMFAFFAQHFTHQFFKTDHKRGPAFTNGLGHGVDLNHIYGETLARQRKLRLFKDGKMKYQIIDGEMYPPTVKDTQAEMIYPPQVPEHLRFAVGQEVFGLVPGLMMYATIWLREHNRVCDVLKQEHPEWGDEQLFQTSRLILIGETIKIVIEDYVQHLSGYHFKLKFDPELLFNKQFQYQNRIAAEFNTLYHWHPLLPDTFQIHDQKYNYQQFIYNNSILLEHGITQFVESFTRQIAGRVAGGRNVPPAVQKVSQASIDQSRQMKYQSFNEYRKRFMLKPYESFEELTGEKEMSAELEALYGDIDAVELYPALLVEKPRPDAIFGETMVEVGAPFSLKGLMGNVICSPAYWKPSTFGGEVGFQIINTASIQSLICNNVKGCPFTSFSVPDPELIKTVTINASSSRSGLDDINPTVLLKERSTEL

[3] = biological target: Prostaglandin G/H synthase 1 (Homo sapiens, UniProt P23219); test: Inhibition of COX1 in human whole blood assessed as thromboxane B2 production by RIA; assay type: tissue-based
Chain of Prostaglandin G/H synthase 1 (Homo sapiens, UniProt P23219) (P23219 whole entry): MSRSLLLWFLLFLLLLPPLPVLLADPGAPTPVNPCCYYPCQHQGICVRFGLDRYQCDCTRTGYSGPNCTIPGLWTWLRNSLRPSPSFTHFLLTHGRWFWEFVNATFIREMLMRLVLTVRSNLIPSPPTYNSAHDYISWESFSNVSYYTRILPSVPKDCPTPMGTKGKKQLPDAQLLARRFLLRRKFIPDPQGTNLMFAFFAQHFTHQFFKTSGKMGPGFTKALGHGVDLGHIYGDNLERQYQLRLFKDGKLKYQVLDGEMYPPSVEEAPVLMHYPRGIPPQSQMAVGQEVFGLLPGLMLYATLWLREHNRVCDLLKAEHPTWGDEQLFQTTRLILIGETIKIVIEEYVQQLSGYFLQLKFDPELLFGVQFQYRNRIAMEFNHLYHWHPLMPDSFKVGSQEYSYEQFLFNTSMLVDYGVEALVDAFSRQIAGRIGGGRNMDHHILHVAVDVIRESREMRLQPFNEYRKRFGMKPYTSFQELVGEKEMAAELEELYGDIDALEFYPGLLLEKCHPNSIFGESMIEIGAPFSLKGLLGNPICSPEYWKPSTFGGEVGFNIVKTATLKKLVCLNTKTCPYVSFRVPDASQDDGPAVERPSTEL

[4] = tested on: Rattus norvegicus; test: Antiinflammatory activity against carrageenan-induced paw edema rat inflammatory model assessed as paw pressure at 20 mg/kg, po after 120 mins; assay type: functional
[5] = species: Mus musculus; test: Selectivity index, ratio of IC50 for mouse COX1 to IC50 for mouse COX2
[6] = tested on: Rattus norvegicus; test: Antiinflammatory activity against carrageenan-induced paw edema rat inflammatory model assessed as suppression of paw edema at 20 mg/kg, po after 60 mins; assay type: functional
[7] = tested on: Rattus norvegicus; test: Antiinflammatory activity against carrageenan-induced paw edema rat inflammatory model assessed as paw pressure at 20 mg/kg, po after 60 mins; assay type: functional
[8] = tested on: Rattus norvegicus; test: Antiinflammatory activity against carrageenan-induced paw edema rat inflammatory model assessed as paw volume at 20 mg/kg, po after 60 mins; assay type: functional
[9] = Metabolic stability in human liver microsomes at 10 uM; assay type: ADME, Microsome; conditions: read-out: Stability
[10] = tested on: Rattus norvegicus; test: Antiinflammatory activity against carrageenan-induced paw edema rat inflammatory model assessed as paw pressure at 20 mg/kg, po after 30 mins; assay type: functional
[11] = biological target: T2, Prostaglandin G/H synthase 1 (Mus musculus, UniProt P22437)
T2 sequence (P22437 whole entry): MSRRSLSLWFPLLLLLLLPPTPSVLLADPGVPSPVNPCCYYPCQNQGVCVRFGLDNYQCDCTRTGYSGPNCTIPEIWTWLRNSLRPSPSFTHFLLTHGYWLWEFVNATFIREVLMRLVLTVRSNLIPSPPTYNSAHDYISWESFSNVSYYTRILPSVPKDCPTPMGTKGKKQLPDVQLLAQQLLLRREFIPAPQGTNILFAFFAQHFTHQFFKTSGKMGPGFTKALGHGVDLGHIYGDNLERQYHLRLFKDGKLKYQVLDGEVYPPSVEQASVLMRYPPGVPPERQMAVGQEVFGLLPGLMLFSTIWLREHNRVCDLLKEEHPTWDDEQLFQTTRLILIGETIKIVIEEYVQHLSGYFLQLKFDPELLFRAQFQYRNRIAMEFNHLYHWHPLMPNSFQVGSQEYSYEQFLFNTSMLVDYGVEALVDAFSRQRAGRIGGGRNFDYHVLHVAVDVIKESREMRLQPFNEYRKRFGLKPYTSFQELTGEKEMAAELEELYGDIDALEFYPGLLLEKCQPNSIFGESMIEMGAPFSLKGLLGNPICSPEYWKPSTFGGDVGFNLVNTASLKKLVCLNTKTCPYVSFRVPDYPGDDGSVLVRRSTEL
Description: Inhibition of COX1-dependent PGE2 production in LPS-stimulated mouse J774 cells by RIA

[12] = biological target: T3, Prostaglandin G/H synthase 2 (Mus musculus, UniProt Q05769)
T3 sequence (Q05769 whole entry): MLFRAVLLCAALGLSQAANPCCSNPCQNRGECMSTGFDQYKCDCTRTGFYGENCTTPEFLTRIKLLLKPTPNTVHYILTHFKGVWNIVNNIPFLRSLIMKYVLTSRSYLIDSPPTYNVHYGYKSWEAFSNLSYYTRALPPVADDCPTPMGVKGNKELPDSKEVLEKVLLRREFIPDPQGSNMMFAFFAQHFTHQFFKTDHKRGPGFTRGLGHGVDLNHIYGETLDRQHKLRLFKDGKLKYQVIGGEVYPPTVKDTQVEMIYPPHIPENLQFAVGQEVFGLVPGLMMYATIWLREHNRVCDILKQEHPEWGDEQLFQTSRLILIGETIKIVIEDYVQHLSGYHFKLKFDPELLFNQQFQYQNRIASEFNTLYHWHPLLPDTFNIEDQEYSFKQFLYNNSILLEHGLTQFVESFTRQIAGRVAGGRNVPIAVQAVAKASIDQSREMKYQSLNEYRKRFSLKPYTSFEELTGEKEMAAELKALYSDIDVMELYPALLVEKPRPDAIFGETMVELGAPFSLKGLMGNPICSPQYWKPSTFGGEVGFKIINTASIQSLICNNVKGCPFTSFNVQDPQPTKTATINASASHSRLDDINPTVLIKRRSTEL
Description: Inhibition of COX2-dependent PGE2 production in LPS-stimulated mouse J774 cells by RIA

[13] = tested on: Mus musculus; test: Analgesic activity against acetic acid-induced po dosed mouse abdominal constriction assessed as writhing; conditions: Abdomen
[14] = tested on: Mus musculus; test: Analgesic activity against acetic acid-induced mouse abdominal constriction assessed as writhing at 20 mg/kg, po; conditions: Abdomen
[15] = tested on: Rattus norvegicus; test: Antiinflammatory activity against carrageenan-induced paw edema rat inflammatory model assessed as paw volume at 10 mg/kg, po after 60 mins
[16] = species: Rattus norvegicus; test: Analgesic activity against zymosan-induced hyperalgesia in rat assessed maximum effect measured up to 6 hrs
[17] = species: Rattus norvegicus; test: Analgesic activity against zymosan-induced hyperalgesia in rat assessed maximum effect measured up to 2 hrs
[18] = tested on: Mus musculus; test: Analgesic activity against acetic acid-induced mouse abdominal constriction assessed as writhing at 10 mg/kg, po; conditions: Abdomen

Structure (SMILES)	remaining at 0.1 µM [1]	IC50 [2]	IC50 [3]	Activity [4]	Ratio IC50 [5]	Activity [6]	Activity [7]	Activity [8]	remaining at 10 µM [9]	Activity [10]	IC50 [11]	IC50 [12]	Activity [13]	Activity [14]	Activity [15]	Activity [16]	Activity [17]	Activity [18]
Cc1c(CC(=O)O)cc(-c2ccc(S(C)(=O)=O)cc2)n1-c1ccccc1	94%	7 µM	132 µM	41.6 g	> 100	42.7%	51.8 g	1.86 mL	97%	48.6 g	–	–	–	–	–	–	–	–
CCOC(=O)Cc1cc(-c2ccc(S(C)(=O)=O)cc2)n(-c2ccccc2)c1C	–	–	–	–	> 2500	–	–	–	–	–	–	–	–	–	–	–	–	–
COc1ccc(-n2c(-c3ccc(S(C)(=O)=O)cc3)cc(CC(=O)OC(C)C)c2C)cc1	7%	–	–	41.7 g	> 4500	77.2%	56.7 g	1.41 mL	1%	51 g	> 100 µM	0.022 µM	–	–	–	–	–	–
Cc1c(CC(=O)OC(C)C)cc(-c2ccc(S(C)(=O)=O)cc2)n1-c1cccc(F)c1	0%	2 µM	24 µM	45.2 g	> 2300	87.2%	57.9 g	1.31 mL	1%	59.5 g	> 100 µM	0.043 µM	Dose-dependent effect	–	–	–	–	–
CCCCOC(=O)Cc1cc(-c2ccc(S(C)(=O)=O)cc2)n(-c2cccc(F)c2)c1C	0%	–	–	45.2 g	> 4100	67.2%	46.9 g	1.71 mL	2%	49.7 g	> 100 µM	0.024 µM	–	–	–	–	–	–
Cc1c(CC(=O)OC(C)C)cc(-c2ccc(S(C)(=O)=O)cc2)n1-c1ccc(F)c(F)c1	0%	–	–	58.3 g	> 4700	89%	52.3 g	1.39 mL	13%	64.8 g	> 100 µM	0.021 µM	–	–	–	–	–	–
CCCCOC(=O)Cc1cc(-c2ccc(S(C)(=O)=O)cc2)n(-c2ccccc2)c1C	7%	–	–	42.6 g	> 7100	66.3%	46.3 g	1.68 mL	3%	52.5 g	> 100 µM	0.014 µM	–	–	–	–	–	–
CCCCOC(=O)Cc1cc(-c2ccc(S(C)(=O)=O)cc2)n(-c2ccc(F)c(F)c2)c1C	2%	–	–	56.6 g	> 3300	73.6%	59.2 g	1.52 mL	15%	52.7 g	> 100 µM	0.03 µM	–	Active	–	–	–	–
Cc1ccc(-c2cc(C(F)(F)F)nn2-c2ccc(S(N)(=O)=O)cc2)cc1 [CELECOXIB]	–	–	–	55.2 g	–	95.5%	58.2 g	–	–	56.5 g	–	–	–	–	1.33 mL	35%	30%	–
Cc1c(CC(=O)O)cc(-c2ccc(S(C)(=O)=O)cc2)n1-c1ccc(F)c(F)c1	100%	–	–	48.6 g	38	90.9%	54.1 g	1.42 mL	100%	58.3 g	10 µM	0.26 µM	–	Active	–	–	–	–
COc1ccc(-n2c(-c3ccc(S(C)(=O)=O)cc3)cc(CC(=O)O)c2C)cc1	77%	–	–	36.2 g	> 580	50.9%	39.8 g	1.81 mL	84%	52.3 g	> 100 µM	0.17 µM	–	–	–	–	–	–
CCCCOC(=O)Cc1cc(-c2ccc(S(C)(=O)=O)cc2)n(-c2ccc(OC)cc2)c1C	5%	–	–	50.8 g	> 2600	89.1%	51.4 g	1.45 mL	2%	53.4 g	> 100 µM	0.038 µM	–	Active	–	–	–	Active
Cc1c(CC(=O)O)cc(-c2ccc(S(C)(=O)=O)cc2)n1-c1cccc(F)c1	100%	17 µM	125 µM	43.1 g	> 3500	93.6%	55.2 g	1.35 mL	100%	54.8 g	> 100 µM	0.028 µM	Dose-dependent effect	Active	–	–	–	–
